Measurements as given in BigSolDB 2.1.

COc1ccc(Cl)cc1C(=O)NCCc1ccc(S(=O)(=O)NC(=O)NC2CCCCC2)cc1
solubility (mole fraction)
Conditions	288.15 K	293.15 K	298.15 K	303.15 K	308.15 K	313.15 K	318.15 K	323.15 K
in acetonitrile	8e-05	0.000106	0.000144	0.000184	0.000231	0.0003	0.00043	0.000571
in isopropanol	0.000106	0.000121	0.000168	0.000231	0.000309	0.000404	0.000577	0.000863
in methanol	0.000181	0.000229	0.000289	0.000365	0.000451	0.000614	0.000941	0.00131
in n-propanol	0.000155	0.000193	0.000237	0.000302	0.000428	0.000572	0.000751	0.00097
in water	9.02e-08	1.02e-07	1.26e-07	1.57e-07	2.18e-07	3.04e-07	4.35e-07	7.67e-07
